Measured values from US20060094764A1, “Cyanothiophenes, their preparation and their use in pharmaceutical compositions” (Boehringer Ingelheim International GmbH, priority 2004, published 2006).
Where a name gives a salt, the structure may show the parent alone.

melting point	Structure (SMILES)
231 to 233 °C	Cc1ccc(C)c(-c2sc(NC(=O)[C@@H]3C[C@@H]4CC[C@H]3C4)c(C#N)c2C(F)(F)F)c1
> 80 °C (dec.)	Cc1c(CCCN(C)c2ccccn2)sc(NC(=O)C2CC3CCC2CC3)c1C#N (stereo not shown) (as salt: hydrochloride)
175 to 180 °C	N#Cc1c(NC(=O)C2CCCCC2)sc(-c2ccccc2)c1Cl
226 to 227 °C	Cc1ccc(C)c(-c2sc(NC(=O)[C@@H]3C[C@H]4C=C[C@@H]3C4)c(C#N)c2C(F)(F)F)c1
167 to 168 °C	N#Cc1c(NC(=O)C2CCCCC2)sc(-c2ccccc2)c1Br
116 to 129 °C (dec.)	Cc1ccc(N(C)CCCc2sc(NC(=O)[C@@H]3C[C@@H]4CC[C@H]3C4)c(C#N)c2C)cc1 (as salt: hydrochloride)
146 to 147 °C	CCCc1sc(NC(=O)C2CCCCC2)c(C#N)c1OC
213 to 214 °C	Cc1ccc(C)c(-c2sc(NC(=O)[C@@H]3C[C@@H]4C=C[C@H]3C4)c(C#N)c2C(F)(F)F)c1
213 to 214 °C	N#Cc1c(NC(=O)C2CCCCC2)sc(-c2ccccc2)c1[N+](=O)[O-]
208 to 212 °C	N#Cc1c(NC(=O)C2CCCCC2)sc(-c2ccccc2)c1C#N
230 °C	Cc1ccc(C)c(-c2sc(NC(=O)[C@H]3C[C@H]4CC[C@@H]3C4)c(C#N)c2C(F)(F)F)c1
208 to 210 °C	Cc1ccc(C)c(-c2sc(NC(=O)[C@@H]3C[C@H]4CC[C@@H]3CC4)c(C#N)c2Cl)c1 (stereo in doubt)
239 to 240 °C	Cc1ccc(C)c(-c2sc(NC(=O)[C@@H]3C[C@H]4CC[C@@H]3C4)c(C#N)c2C(F)(F)F)c1
168 to 169 °C	Cc1ccc(C)c(-c2cc(C#N)c(NC(=O)[C@@H]3C[C@@H]4CC[C@H]3C4)s2)c1
209 to 211 °C	Cc1ccc(C)c(-c2sc(NC(=O)[C@H]3C[C@H]4C=C[C@@H]3C4)c(C#N)c2C(F)(F)F)c1
242 °C	Cc1ccc(C)c(-c2sc(NC(=O)[C@H]3C[C@@H]4CC[C@H]3C4)c(C#N)c2C(F)(F)F)c1
242 to 244 °C	Cc1ccc(C)c(C2SC(NC(=O)C3CC4CCC3CC4)=C(C#N)C2(Cl)C(F)(F)F)c1 (stereo not shown)
117 to 119 °C	Cc1ccc(C)c(-c2sc(NC(=O)[C@@H]3C[C@@H]4CC[C@H]3C4)c(C#N)c2Cl)c1
133 to 140 °C	Cc1ccc(N(C)CCCc2sc(NC(=O)C3CC4CCC3CC4)c(C#N)c2C)cc1 (stereo not shown) (as salt: hydrochloride)
